PubChem BioAssay AID2060331 (Molecular Pharmacology Branch, DTP, NCI, 2025)
Where “and” joins values, the source holds several entries; their conditions need not be identical. Equal entries are not always repeated.

Test system: Hs578T multi-cell spheroids, viability
Assay: Anticancer human tumor Hs578T cell line growth inhibition [IpAb];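 further: drug exposure lasted 7 days before readout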
Conditions: for viability, T/C: stronger effect = lower value; active means viability on the fitted dose curve at most 10% of control; inactive means the rest
Source text: Combinatorial screen of targeted agents with ipatasertib and abemaciclib in multi-cell type tumor spheroids
A high-throughput screen of multi-cell type tumor spheroids was designed to identify active combinations of targeted small molecules and ipatasertib or abemaciclib. Complex spheroids include a stromal component modeled by human endothelial cells (HUVEC) and fibroblasts modeled by human mesenchymal stem cells (MSCs). The concentration ranges selected for each drug and investigational agent were based upon clinically achievable concentrations if the clinical Cmax of the agent was known.
Compounds. The drugs and investigational agents: ipatasertib (NSC767898), abemaciclib(NSC768073), selumetinib (NSC741078), trametinib (758246), adavosertib (NSC754352), everolimus (NSC733504), sapanisertib (NSC764658), vemurafenib (NSC761431), venetoclax (NSC766270), copanlisib (NSC809693), apelisib (NSC765974), palbociblib (NSC758247), vemurafenib (NSC761431), dabrafenib (NSC764134), ravoxertinib (NSC781343), BMS-387032 (NSC767048), sotorasib (NSC818433), talazoparib (NSC767125) and afursertib (NSC778305), were obtained from the National Cancer Institute (NCI) Developmental Therapeutics Program Chemical Repository. The FDA-approved anticancer drug set is available from the NCI Developmental Therapeutics Program. […] The stock solutions were prepared in dimethyl sulfoxide (DMSO, Sigma-Aldrich, St. Louis, MO, cat. D2650) at 800-fold the tested concentration and stored at -70 degrees C prior to their use. All drugs and investigational agents were tested over a range starting from a high concentration at or near the clinical Cmax and decreasing in half-log increments. If the clinical Cmax for an agent had not been determined, the highest concentration tested was 10 microM.
NCI60 Cell Culture. NCI60 cell lines were obtained from the NCI Developmental Therapeutics Program Tumor Repository. For each lot of cells, the Repository performed Applied Biosystems AmpFLSTR Identifiler testing with PCR amplification to confirm consistency with the published Identifier STR profile for each cell line. Cells were kept in continuous culture for no more than 20 passages. The optimal seeding densities for each of the cell lines at each time point assessed were determined prior to performing the concentration response studies. Briefly, the NCI60 human tumor lines were grown as monolayers in RPMI 1640 medium supplemented with 10% FBS and 2 mmol/L L-glutamine.
An additional 9 lines were from the NCI60 cell line panel including MDA-MB-231 breast carcinoma, MDA-MB-468 breast carcinoma, MCF7 breast carcinoma, Hs578T breast carcinoma, MALME-3M melanoma, SK-MEL-2 melanoma, SK-OV-3 ovarian carcinoma, DU-145 prostate carcinoma, PC-3 prostate carcinoma, all cell lines along with major genetic alterations are listed on Table 2. Pooled donor human umbilical vein endothelial cells (HUVEC, Lonza, cat. CC-2519) and human mesenchymal stem cells (hMSC, Lonza, cat. PT-2501) were purchased from Lonza (Walkersville, MD).
PDMR cell lines were grown in complete medium (DC medium): Dulbecco's modified Eagle's medium (DMEM)/F12 supplemented with 5% fetal bovine serum (FBS), 2 mM L-glutamine, 100 U/mL penicillin and 100 µg/ml streptomycin, 0.4 µg/ml hydrocortisone, 10 ng/ml epidermal growth factor (EGF) recombinant human protein, 24 µg/mL adenine, and 0.1 mg/mL primocin. During culture from frozen stock vials, PDMR cells were cultured in the same medium containing 10 µM Y-27632 (see Table 3). The PDCs were cultured in complete DMEM/F12 media without 10 microM Y-27632 dihydrochloride for at least two passages prior to the screen. The pooled donor HUVEC and hMSC were cultured in endothelial cell growth medium 2 (PromoCell, Heidelberg, Germany, cat. C-22011) and mesenchymal stem cell growth medium 2 (PromoCell, cat. C-28009), respectively. For all experiments, HUVEC and hMSC were used at passages </=5.
[…]

[1] = curve of first compound, second compound 0.1 µM
[2] = curve of first compound, second compound 0.316 µM
[3] = curve of first compound, second compound 1 µM
[4] = curve of first compound, second compound 0.01 µM
[5] = curve of first compound, second compound 0.0316 µM
[6] = second compound 0.01 µM, first compound 0.00949 µM
[7] = second compound 0.01 µM, first compound 0.03 µM
[8] = second compound 0.01 µM, first compound 0.0949 µM
[9] = second compound 0.01 µM, first compound 0.3 µM
[10] = second compound 0.0316 µM, first compound 0.00949 µM
[11] = second compound 0.0316 µM, first compound 0.03 µM
[12] = second compound 0.0316 µM, first compound 0.0949 µM
[13] = second compound 0.0316 µM, first compound 0.3 µM
[14] = second compound 0.1 µM, first compound 0.00949 µM
[15] = second compound 0.1 µM, first compound 0.03 µM
[16] = second compound 0.1 µM, first compound 0.0949 µM
[17] = second compound 0.1 µM, first compound 0.3 µM
[18] = second compound 0.316 µM, first compound 0.00949 µM
[19] = second compound 0.316 µM, first compound 0.03 µM
[20] = second compound 0.316 µM, first compound 0.0949 µM
[21] = second compound 0.316 µM, first compound 0.3 µM
[22] = second compound 1 µM, first compound 0.00949 µM
[23] = second compound 1 µM, first compound 0.03 µM
[24] = second compound 1 µM, first compound 0.0949 µM
[25] = second compound 1 µM, first compound 0.3 µM

Cn1ncnc1[C@H]1c2n[nH]c(=O)c3cc(F)cc(c23)N[C@@H]1c1ccc(F)cc1 + CC(C)NCC(C(=O)N1CCN(c2ncnc3c2C(C)CC3O)CC1)c1ccc(Cl)cc1
0.553 nM: IC50 (curve of first compound, second compound 3.16 µM)
inactive: viability, T/C (second compound 0.1 µM, first compound 0.000316 µM) 97.6% | viability, T/C (second compound 0.1 µM, first compound 0.001 µM) 95.3% | viability, T/C (second compound 0.1 µM, first compound 0.00316 µM) 87.9% | viability, T/C (second compound 0.1 µM, first compound 0.01 µM) 88.2% | viability, T/C (second compound 0.1 µM, first compound 0.0316 µM) 82.8% | viability, T/C (second compound 0.1 µM, first compound 0.1 µM) 82.3% | viability, T/C (second compound 0.316 µM, first compound 0.000316 µM) 80.7% | viability, T/C (second compound 0.316 µM, first compound 0.001 µM) 79.5% | viability, T/C (second compound 0.316 µM, first compound 0.00316 µM) 79.9% | viability, T/C (second compound 0.316 µM, first compound 0.01 µM) 71.7% | viability, T/C (second compound 0.316 µM, first compound 0.0316 µM) 75.5% | viability, T/C (second compound 0.316 µM, first compound 0.1 µM) 65.9% | viability, T/C (second compound 1 µM, first compound 0.000316 µM) 66.1% | viability, T/C (second compound 1 µM, first compound 0.001 µM) 61.3% | viability, T/C (second compound 1 µM, first compound 0.00316 µM) 62.6% | viability, T/C (second compound 1 µM, first compound 0.01 µM) 60% | viability, T/C (second compound 1 µM, first compound 0.0316 µM) 58.6% | viability, T/C (second compound 1 µM, first compound 0.1 µM) 55.1% | viability, T/C (second compound 3.16 µM, first compound 0.000316 µM) 49.7% | viability, T/C (second compound 3.16 µM, first compound 0.001 µM) 49.4% | viability, T/C (second compound 3.16 µM, first compound 0.00316 µM) 50.5% | viability, T/C (second compound 3.16 µM, first compound 0.01 µM) 48.3% | viability, T/C (second compound 3.16 µM, first compound 0.0316 µM) 44.9% | viability, T/C (second compound 3.16 µM, first compound 0.1 µM) 42.3% | viability, T/C (second compound 10 µM, first compound 0.000316 µM) 46.1% | viability, T/C (second compound 10 µM, first compound 0.001 µM) 42.9% | viability, T/C (second compound 10 µM, first compound 0.00316 µM) 44.9% | viability, T/C (second compound 10 µM, first compound 0.01 µM) 40.6% | viability, T/C (second compound 10 µM, first compound 0.0316 µM) 43.3% | viability, T/C (second compound 10 µM, first compound 0.1 µM) 38.6%
> 100 nM: IC50 [1] | IC50 [2] | IC50 [3]
< 0.316 nM: IC50 (curve of first compound, second compound 10 µM)

CC(=O)c1c(C)c2cnc(Nc3ccc(N4CCNCC4)cn3)nc2n(C2CCCC2)c1=O + CCN1CCN(Cc2ccc(Nc3ncc(F)c(-c4cc(F)c5nc(C)n(C(C)C)c5c4)n3)nc2)CC1
inactive: viability, T/C (second compound 0.01 µM, first compound 0.000949 µM) 106% | viability, T/C (second compound 0.01 µM, first compound 0.003 µM) 95.1% | viability, T/C [6] 95% | viability, T/C [7] 81.9% | viability, T/C [8] 77.5% | viability, T/C [9] 63.4% | viability, T/C (second compound 0.0316 µM, first compound 0.000949 µM) 91.3% | viability, T/C (second compound 0.0316 µM, first compound 0.003 µM) 89.1% | viability, T/C [10] 90.3% | viability, T/C [11] 73.3% | viability, T/C [12] 69.3% | viability, T/C [13] 60.5% | viability, T/C (second compound 0.1 µM, first compound 0.000949 µM) 75.6% | viability, T/C (second compound 0.1 µM, first compound 0.003 µM) 80.8% | viability, T/C [14] 81.8% | viability, T/C [15] 80.8% | viability, T/C [16] 66% | viability, T/C [17] 73.3% | viability, T/C (second compound 0.316 µM, first compound 0.000949 µM) 81.3% | viability, T/C (second compound 0.316 µM, first compound 0.003 µM) 85.2% | viability, T/C [18] 82.2% | viability, T/C [19] 79.8% | viability, T/C [20] 70.7% | viability, T/C [21] 68% | viability, T/C (second compound 1 µM, first compound 0.000949 µM) 93% | viability, T/C (second compound 1 µM, first compound 0.003 µM) 98.5% | viability, T/C [22] 93.7% | viability, T/C [23] 96.7% | viability, T/C [24] 89.5% | viability, T/C [25] 89%
> 300 nM: IC50 [4] | IC50 [5] | IC50 [1] | IC50 [2] | IC50 [3]

Cn1cnc2c(F)c(Nc3ccc(Br)cc3Cl)c(C(=O)NOCCO)cc21 + CCN1CCN(Cc2ccc(Nc3ncc(F)c(-c4cc(F)c5nc(C)n(C(C)C)c5c4)n3)nc2)CC1
1470 nM: IC50 [1]
inactive: viability, T/C [6] 98.5% | viability, T/C [7] 95% | viability, T/C [8] 82.1% | viability, T/C [9] 87.5% | viability, T/C (second compound 0.01 µM, first compound 0.949 µM) 69.4% | viability, T/C (second compound 0.01 µM, first compound 3 µM) 49.2% | viability, T/C [10] 88.3% | viability, T/C [11] 77% | viability, T/C [12] 72.2% | viability, T/C [13] 79.4% | viability, T/C (second compound 0.0316 µM, first compound 0.949 µM) 67.1% | viability, T/C (second compound 0.0316 µM, first compound 3 µM) 40.8% | viability, T/C [14] 79.6% | viability, T/C [15] 70.6% | viability, T/C [16] 77.7% | viability, T/C [17] 65.5% | viability, T/C (second compound 0.1 µM, first compound 0.949 µM) 58.3% | viability, T/C (second compound 0.1 µM, first compound 3 µM) 38.1% | viability, T/C [18] 77.3% | viability, T/C [19] 74% | viability, T/C [20] 68.3% | viability, T/C [21] 68.3% | viability, T/C (second compound 0.316 µM, first compound 0.949 µM) 56.2% | viability, T/C (second compound 0.316 µM, first compound 3 µM) 46% | viability, T/C [22] 89.8% | viability, T/C [23] 89.7% | viability, T/C [24] 78.9% | viability, T/C [25] 75.3% | viability, T/C (second compound 1 µM, first compound 0.949 µM) 69.2% | viability, T/C (second compound 1 µM, first compound 3 µM) 53%
2000 nM: IC50 [5]
2980 nM: IC50 [4]
2020 nM: IC50 [2]
> 3000 nM: IC50 [3]

Cn1ncc(Cl)c1-c1cc(C(=O)NC(CN)Cc2cccc(F)c2)sc1Cl (configuration not stated)
active: viability, T/C (compound 10 µM) 0.22% and 0.31%
inactive: viability, T/C (compound 0.0316 µM) 90.4% and 98.8% | viability, T/C (compound 0.1 µM) 91% and 85.1% | viability, T/C (compound 0.316 µM) 72.4% and 75.8% | viability, T/C (compound 1 µM) 60.7% and 63.9% | viability, T/C (compound 3.16 µM) 49.9% and 56.1%
2180 nM and 2650 nM: IC50 (curve of compound)
